From patent publication US20250129069A1, “TRIAZOLO WRN INHIBITORS” (Nimbus Wadjet, Inc., priority 2023, published 2025)

Experiments:
[1] = biological target: human Werner helicase (WRN, amino acids 517-1235 with L1074F point mutation) (Homo sapiens (Human), UniProt Q14191, L1074F); test: WRN (BV08) ADP-Glo assay; format: biochemical; settings: human WRN (aa 517-1235, L1074F), read-out: ADP-Glo_hWRN_IC50
Text: Bovine skin gelatin (BSG), dimethyl sulfoxide (DMSO), Pluronic F-127 and tris(2-carboxyethyl)phosphine hydrochloride solution (TCEP) were purchased from Sigma-Aldrich (St. Louis, MO) at the highest level of purity possible. Bicine buffer solution was purchased from Alfa Aesar (Tewksbury, MA) and compound NSC-617145 was purchased from Tocris (Minneapolis, MN). DNA duplex was synthesized at BGI (Shenzhen, China) and was composed of strand 1 with the sequence 5′-[…]-3′ (SEQ ID NO.: 1) and strand 2 with the sequence 5′-[…]-3′ (SEQ ID NO.: 2). DNA strands were annealed by heating to 95° C. for 5 minutes followed by slow cooling to room temperature. Compounds in 100% DMSO (0.1 μl) were spotted into a 384-well white polystyrene Optiplate-384 (Perkin Elmer; Waltham, MA) assay plate using a LabCyte Echo 550 (Agilent; Santa Clara, CA). DMSO (0.1 μl) was added to columns 12, rows A-H and column 24, rows I-P for the maximum signal control. Compound NSC-617145 (0.1 μl) was added to columns 12, rows I-P and 24, rows A-H for the minimum signal control (100% inhibition). Compounds/DMSO were preincubated for 15 minutes at 25° C. with 5 μl 2×WRN (BV08), prepared as described below, in assay buffer containing 20 mM Bicine (pH=7.5), 1 mM MgCl2, 10 mM KCl, 0.1% Pluronic F-127, 0.005% BSG, 1 mM TCEP. The reaction was initiated by the addition of 5 μl 2× substrate mixture in assay buffer and incubated for 60 minutes at 25° C. The final concentrations of the assay components were 0.15 nM WRN, 5 μM ATP, and 0.1 nM DNA duplex. The final DMSO concentration was 1% and the reference compound concentration (NSC-617145) used for the minimal signal control was 20 μM. The reaction was stopped by the addition of the ADP-Glo Kit components (Promega; Madison, WI) as directed and the relative luminescence units (RLU) were read on an Envision 2104 (Perkin Elmer; Waltham, MA).
% inhibition calculation:
% INH=(RLU MAX−RLU sample)/(RLU MAX−RLU MIN))×100
Where RLU=relative luminescence units, sample=signal in sample well, and MIN and MAX are the respective minimum and maximum signal controls. Four-parameter IC50 fit equation:
Y=Bottom+(Top−Bottom)/(1+(IC50/X)^Hill Slope)
Where top and bottom are normally allowed to float but may be fixed at 100 or 0 respectively in a 3-parameter fit. Y is the % inhibition and X is the compound concentration.
Molecular Biology and virus production. The DNA encoding human Werner helicase (Uniprot Q14191, amino acids 517-1235 with L1074F point mutation) was generated with codon-optimization for E. coli expression and subcloned into the pFastBac vector with a TEV cleavable 8×His tag (WRN—BV08). The baculovirus from the expression plasmid WRN—BV08 was generated from transfection and amplification following the manufacturer's instructions.
Sf9 cells grown in SF900II media were infected with 1:200 WRN—BV08 P2 virus and incubated for protein expression for 72 h at 27° C. The WRN protein was purified using the following protocol. The cell pellets were thawed and resuspended in buffer A (50 mM Tris, pH 7.5, 500 mM NaCl, 1 mM TCEP, 10% Glycerol) supplemented with 0.5% CHAPS, 1 mM PMSF, […] Leupeptin, 1 μg/ml Pepstatin, and the Pierce Universal Nuclease and cocktail tablet. Cleared lysates were loaded onto a Ni Sepharose™ excel column and washed with buffer A and bound protein was eluted with buffer A supplemented with 300 mM imidazole. The eluted protein was dialyzed against buffer A and digested by His-tagged TEV (1:5 ratio) overnight at 4° C. ZnCl2 was added into the sample at final 15 μM before loading onto a second Ni Sepharose™ excel column. Untagged WRN protein was eluted from the column with buffer A supplemented with 20 mM imidazole, dialyzed overnight into buffer B (50 mM Tris, pH 7.5, 1 mM TCEP, 10% Glycerol) supplemented with 150 mM NaCl and loaded onto a Heparin column. Proteins were eluted with a step gradient of buffer B supplemented with 150 mM, 200 mM, 300 mM and 500 mM NaCl. […]

[2] = test system: p21 induction in HCT 116 cells; test: p21 induction in cells (In-Cell Western, p21/GAPDH ratio); format: cell-based; settings: Homo sapiens, 24 h compound incubation, read-out: p21_EC50
Description: The colon carcinoma cell line HCT 116 was obtained from ATCC and cultured in growth medium consisting of Mccoy's 5A Medium (Gibco 16600108) supplemented with 10% FBS (Transgene FS201-02) and 100 units/mL penicillin-streptomycin (Gibco 15140122) and maintained at 37° C. under 5% CO2. On the day of seeding, 2,000 cells in 30 μL of culture media were plated per well to Poly-D-Lysine 384 Well Black Clear Plates (Biocoat 356663) and incubated overnight at 37° C. under 5% CO2. The following day, compounds were serially diluted in DMSO for a total of 11 test concentrations. The typical starting concentration of compounds was 10 μM with 2-fold dilutions. Next, 150 nL of diluted compound was added in duplicate to the assay plate, using an Echo 655 (Labcyte). The plate was centrifuged at 500 RPM for 1 min and then incubated at 37° C. under 5% CO2 for 24 h. After 24 h, medium was removed, and cells were fixed by adding 40 μL of 4% paraformaldehyde solution to each well and incubated for 20 min at room temperature. The plate was then washed 4 times with 100 μL per well of wash buffer (PBS with 0.1% Tween-20) using a microplate washer. Next, 30 μL of ice-cold methanol was added to each well and the plate was incubated at −20° C. for 10 min. The plate was washed 4 times with 100 μL per well of wash buffer by a microplate washer, then 30 μL per well of blocking buffer ((Intercept PBS blocking buffer (LI-COR 927-70001) with 0.05% Tween-20)) was added and the plate was incubated at room temperature with shaking for 2 h. Next, to each test well, 20 μL of primary antibody solution (p21 Wafl/CIP (12D1) RabbitmAb (Cell Signaling Technologies 2947) diluted 1:1000 and GAPDH (D4C6R) Mouse mAb (Cell Signaling Technologies 97166) diluted 1:2000 in blocking buffer) was added and the plate was placed at 4° C., overnight. The following day, the plate was washed 5 times with 100 μL per well of wash buffer using a microplate washer for 5 min. 20 μL per well of secondary antibody (IRDye 680CW Goat anti-Mouse IgG (H+L) (LI-COR 926-68070) diluted 1:2000 in Blocking Buffer and IRDye 800CW Goat anti-Rabbit IgG (H+L) (LI-COR 926-32211) diluted 1:2000 in Blocking Buffer) was then added and the plate was stored for 2 h in the dark at room temperature with shaking. The plate was then washed 4 times with 100 μL per well of wash buffer again using a microplate washer. Finally, the p21 signal and the GAPDH signal were quantified using a LI-COR Odyssey CLx Imager machine reading at 800 nm and 700 nm, respectively. Each plate contained DMSO control (low control) and an internal reference WRN inhibitor (high control) respectively. For quantitation, the 800 nm/700 nm ratio was calculated for each well to give fold p21 induction and then percent activation for each compound well was calculated as follows (100×(ratio cpd well-ratio low control)/(ratio high control−ratio low control). EC50 values for each compound was generated after non-linear regression curve fitting using commercially available software.

Chain of human Werner helicase (WRN, amino acids 517-1235 with L1074F point mutation) (Q14191 other isoform, or with tags, fused parts or gaps L1074F (already in the parent)): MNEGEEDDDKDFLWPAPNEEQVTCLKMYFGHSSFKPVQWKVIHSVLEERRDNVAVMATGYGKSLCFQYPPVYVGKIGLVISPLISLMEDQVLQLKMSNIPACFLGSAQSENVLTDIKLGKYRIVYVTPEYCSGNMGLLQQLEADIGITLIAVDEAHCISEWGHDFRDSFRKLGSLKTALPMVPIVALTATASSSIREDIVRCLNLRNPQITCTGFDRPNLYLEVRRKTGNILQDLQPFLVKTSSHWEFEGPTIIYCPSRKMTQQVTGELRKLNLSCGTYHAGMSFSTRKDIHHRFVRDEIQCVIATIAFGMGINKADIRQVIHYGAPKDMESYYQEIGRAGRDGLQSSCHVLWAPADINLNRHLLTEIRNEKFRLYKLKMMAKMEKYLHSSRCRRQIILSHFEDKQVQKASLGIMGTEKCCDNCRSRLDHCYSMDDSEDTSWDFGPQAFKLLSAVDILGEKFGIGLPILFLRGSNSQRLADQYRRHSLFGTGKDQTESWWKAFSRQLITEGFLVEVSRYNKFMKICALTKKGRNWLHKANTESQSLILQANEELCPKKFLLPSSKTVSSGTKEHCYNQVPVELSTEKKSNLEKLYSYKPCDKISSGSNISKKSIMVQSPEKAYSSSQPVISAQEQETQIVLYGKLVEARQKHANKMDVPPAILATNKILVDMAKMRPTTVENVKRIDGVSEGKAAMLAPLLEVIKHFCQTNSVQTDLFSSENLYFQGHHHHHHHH

Structure (SMILES)	IC50 [1] [µM]	EC50 [2] [µM]
CCc1c(N2CCN(C(=O)c3c(OC)ncc(C)c3O)CC2)c(=O)c2nn(-c3ccnc(C)c3)nc2n1CC(=O)NC12CC(C(C)C)(C1)C2 [Compound I-130, 2-{5-ethyl-6-[4-(4-hydroxy-2-methoxy-5-methylpyridine-3-carbonyl)piperazin-1-yl]-2-(2-methylpyridin-4-yl)-7-oxo-2H,4H,7H-[1,2,3]triazolo[4,5-b]pyridin-4-yl}-N-[3-(propan-2-yl)bicyclo[1.1.1]pentan-1-yl]acetamide]	0.005 to 0.05	≤ 0.5
CCc1c(N2CCN(C(=O)c3ncnc(C)c3O)[C@H]3CC[C@@H]32)c(=O)c2nn(-c3ccnc(OC)c3)nc2n1CC(=O)Nc1ccc(C(F)(F)F)cc1Cl [Compound I-6, N-(2-chloro-4-(trifluoromethyl)phenyl)-2-(5-ethyl-6-((1S,6S)-5-(5-hydroxy-6-methylpyrimidine-4-carbonyl)-2,5-diazabicyclo[4.2.0]octan-2-yl)-2-(2-methoxypyridin-4-yl)-7-oxo-2,7-dihydro-4H-[1,2,3]triazolo[4,5-b]pyridin-4-yl)acetamide]	≤ 0.005	
CCc1c(N2CCN(C(=O)c3ncnc(C)c3O)[C@H]3CC[C@@H]32)c(=O)c2nn(-c3ccnc(OC)c3)nc2n1CC(=O)NC1CC2(CCC2)C1 [Compound I-86, 2-{5-ethyl-6-[(1S,6S)-5-(5-hydroxy-6-methylpyrimidine-4-carbonyl)-2,5-diazabicyclo[4.2.0]octan-2-yl]-2-(2-methoxypyridin-4-yl)-7-oxo-2H,4H,7H-[1,2,3]triazolo[4,5-b]pyridin-4-yl}-N-{spiro[3.3]heptan-2-yl}acetamide]	0.005 to 0.05	
CCc1c(N2CCN(C(=O)c3ncnc(C)c3O)CC2)c(=O)c2nn(-c3cc(C)n(C)n3)nc2n1CC(=O)Nc1ccc(C(F)(F)F)cc1Cl [Compound I-16, N-(2-chloro-4-(trifluoromethyl)phenyl)-2-(2-(1,5-dimethyl-1H-pyrazol-3-yl)-5-ethyl-6-(4-(5-hydroxy-6-methylpyrimidine-4-carbonyl)piperazin-1-yl)-7-oxo-2,7-dihydro-4H-[1,2,3]triazolo[4,5-b]pyridin-4-yl)acetamide]	0.005 to 0.05	
CCc1c(N2CCN(C(=O)c3ncnc(C)c3O)CC2)c(=O)c2nn(C3=CCOCC3)nc2n1CC(=O)Nc1ccc(C(F)(F)F)cc1Cl [Compound I-13, N-(2-chloro-4-(trifluoromethyl)phenyl)-2-(2-(3,6-dihydro-2H-pyran-4-yl)-5-ethyl-6-(4-(5-hydroxy-6-methylpyrimidine-4-carbonyl)piperazin-1-yl)-7-oxo-2,7-dihydro-4H-[1,2,3]triazolo[4,5-b]pyridin-4-yl)acetamide]	0.005 to 0.05	
CCc1c(N2CCN(C(=O)c3ncnc(C)c3O)[C@H]3CC[C@@H]32)c(=O)c2nn(C3=CCC(OC)CC3)nc2n1CC(=O)NC12CC(C3CC3)(C1)C2 (stereo partly drawn) [Compound I-173, N-{3-cyclopropylbicyclo[1.1.1]pentan-1-yl}-2-{5-ethyl-6-[(1S,6S)-5-(5-hydroxy-6-methylpyrimidine-4-carbonyl)-2,5-diazabicyclo[4.2.0]octan-2-yl]-2-(4-methoxycyclohex-1-en-1-yl)-7-oxo-2H,4H,7H-[1,2,3]triazolo[4,5-b]pyridin-4-yl}acetamide]		≤ 0.5
CCc1c(N2CCN(C(=O)c3c(COC)cccc3OC)[C@H]3CC[C@@H]32)c(=O)c2nn(C3=CCOCC3)nc2n1CC(=O)NC12CC(C3CC3)(C1)C2 [Compound I-212, N-{3-cyclopropylbicyclo[1.1.1]pentan-1-yl}-2-[2-(3,6-dihydro-2H-pyran-4-yl)-5-ethyl-6-[(1S,6S)-5-[2-methoxy-6-(methoxymethyl)benzoyl]-2,5-diazabicyclo[4.2.0]octan-2-yl]-7-oxo-2H,4H,7H-[1,2,3]triazolo[4,5-b]pyridin-4-yl]acetamide]		0.5 to 2
CCc1c(N2CCN(C(=O)c3ncnc(C)c3O)[C@H]3CC[C@@H]32)c(=O)c2nn(C3=CCN(CC(F)F)CC3)nc2n1CC(=O)NC12CC(C3CC3)(C1)C2 [Compound I-185, N-{3-cyclopropylbicyclo[1.1.1]pentan-1-yl}-2-{2-[1-(2,2-difluoroethyl)-1,2,3,6-tetrahydropyridin-4-yl]-5-ethyl-6-[(1S,6S)-5-(5-hydroxy-6-methylpyrimidine-4-carbonyl)-2,5-diazabicyclo[4.2.0]octan-2-yl]-7-oxo-2H,4H,7H-[1,2,3]triazolo[4,5-b]pyridin-4-yl}acetamide]		≤ 0.5
CCc1c(N2CCN(C(=O)c3c(OC)ccc4ncoc34)[C@H]3CC[C@@H]32)c(=O)c2nn(C3=CCOCC3)nc2n1CC(=O)NC12CC(C3CC3)(C1)C2 [Compound I-192, N-{3-cyclopropylbicyclo[1.1.1]pentan-1-yl}-2-[2-(3,6-dihydro-2H-pyran-4-yl)-5-ethyl-6-[(1S,6S)-5-(6-methoxy-1,3-benzoxazole-7-carbonyl)-2,5-diazabicyclo[4.2.0]octan-2-yl]-7-oxo-2H,4H,7H-[1,2,3]triazolo[4,5-b]pyridin-4-yl]acetamide]		≤ 0.5
